Data taken from patent publication US10004701B2, “Methods and compositions for treating infection” (UNIVERSITY OF ROCHESTER, priority 2012, dated 2018).
Structures can show the parent of a compound that is named as a salt. Where two headings read alike, the source gives them in different places.

Key:
Test in all cases: AK assay 384-well format, Prestwick library screening
P. aeruginosa = assay type: cell-based, Pseudomonas aeruginosa; details: 50 μM final drug concentration; for fold induction at 50 µM: Pseudomonas aeruginosa, 3 h
E. faecium = assay type: cell-based, Enterococcus faecium; details: 50 μM final drug concentration; for fold induction at 50 µM: Enterococcus faecium, 3 h
[1] = system: S. aureus strain USA300-0114; assay type: cell-based, Staphylococcus aureus; details: 50 μM final drug concentration; for fold induction at 50 µM: Staphylococcus aureus, USA300, 3 h
K. pneumoniae = assay type: cell-based, Klebsiella pneumoniae; details: 50 μM final drug concentration; for fold induction at 50 µM: Klebsiella pneumoniae, 3 h
[2] = system: A. baumannii strain 98-37-09; assay type: cell-based, Acinetobacter baumannii; details: 50 μM final drug concentration; for fold induction at 50 µM: Acinetobacter baumannii, 983709, 3 h
E. coli = assay type: cell-based, Escherichia coli; details: 50 μM final drug concentration; for fold induction at 50 µM: Escherichia coli, 3 h
E. cloacae = assay type: cell-based, Enterobacter cloacae; details: 50 μM final drug concentration; for fold induction at 50 µM: Enterobacter cloacae, 3 h
[3] = 384-well format, cutoff for positive-scoring molecules 3-fold increase, read-out: AK-based Prestwick Library Screening Results, P. aeruginosa (increase in extracellular AK activity)
[4] = 384-well format, cutoff for positive-scoring molecules 3-fold increase, read-out: AK-based Prestwick Library Screening Results, E. faecium (increase in extracellular AK activity)
[5] = 384-well format, cutoff for positive-scoring molecules 3-fold increase, read-out: AK-based Prestwick Library Screening Results, S. aureus (increase in extracellular AK activity)
[6] = 384-well format, cutoff for positive-scoring molecules 3-fold increase, read-out: AK-based Prestwick Library Screening Results, K. pneumoniae (increase in extracellular AK activity)
[7] = 384-well format, cutoff for positive-scoring molecules 3-fold increase, read-out: AK-based Prestwick Library Screening Results, A. baumannii (increase in extracellular AK activity)
[8] = 384-well format, cutoff for positive-scoring molecules 3-fold increase, read-out: AK-based Prestwick Library Screening Results, E. coli (increase in extracellular AK activity)
[9] = 384-well format, cutoff for positive-scoring molecules 3-fold increase, read-out: AK-based Prestwick Library Screening Results, E. cloacae (increase in extracellular AK activity)
[10] = cutoff for positive-scoring molecules 3-fold increase, read-out: AK-based Prestwick Library Screening Results, P. aeruginosa (fold increase in extracellular AK activity)
[11] = cutoff for positive-scoring molecules 3-fold increase, read-out: AK-based Prestwick Library Screening Results, E. faecium (fold increase in extracellular AK activity)
[12] = cutoff for positive-scoring molecules 3-fold increase, read-out: AK-based Prestwick Library Screening Results, S. aureus (fold increase in extracellular AK activity)
[13] = cutoff for positive-scoring molecules 3-fold increase, read-out: AK-based Prestwick Library Screening Results, K. pneumoniae (fold increase in extracellular AK activity)
[14] = cutoff for positive-scoring molecules 3-fold increase, read-out: AK-based Prestwick Library Screening Results, A. baumannii (fold increase in extracellular AK activity)
[15] = cutoff for positive-scoring molecules 3-fold increase, read-out: AK-based Prestwick Library Screening Results, E. coli (fold increase in extracellular AK activity)
[16] = cutoff for positive-scoring molecules 3-fold increase, read-out: AK-based Prestwick Library Screening Results, E. cloacae (fold increase in extracellular AK activity)
[17] = planktonic P. aeruginosa, 384-well, cutoff for positive-scoring molecules 3-fold increase, read-out: AK-based Prestwick Library Screening Results: P. aeruginosa (increase in extracellular AK activity)
[18] = planktonic E. faecium, 384-well, cutoff for positive-scoring molecules 3-fold increase, read-out: AK-based Prestwick Library Screening Results: E. faecium (increase in extracellular AK activity)
[19] = planktonic S. aureus, 384-well, cutoff for positive-scoring molecules 3-fold increase, read-out: AK-based Prestwick Library Screening Results: S. aureus (increase in extracellular AK activity)
[20] = planktonic K. pneumoniae, 384-well, cutoff for positive-scoring molecules 3-fold increase, read-out: AK-based Prestwick Library Screening Results: K. pneumoniae (increase in extracellular AK activity)
[21] = planktonic A. baumannii, 384-well, cutoff for positive-scoring molecules 3-fold increase, read-out: AK-based Prestwick Library Screening Results: A. baumannii (increase in extracellular AK activity)
[22] = planktonic E. coli, 384-well, cutoff for positive-scoring molecules 3-fold increase, read-out: AK-based Prestwick Library Screening Results: E. coli (increase in extracellular AK activity)
[23] = planktonic E. cloacae, 384-well, cutoff for positive-scoring molecules 3-fold increase, read-out: AK-based Prestwick Library Screening Results: E. cloacae (increase in extracellular AK activity)
[24] = planktonic P. aeruginosa, cutoff for positive-scoring molecules 3-fold increase, read-out: AK-based Prestwick Library Screening Results, P. aeruginosa (increase in extracellular AK activity)
[25] = planktonic E. faecium, cutoff for positive-scoring molecules 3-fold increase, read-out: AK-based Prestwick Library Screening Results, E. faecium (increase in extracellular AK activity)
[26] = planktonic S. aureus, cutoff for positive-scoring molecules 3-fold increase, read-out: AK-based Prestwick Library Screening Results, S. aureus (increase in extracellular AK activity)
[27] = planktonic K. pneumoniae, cutoff for positive-scoring molecules 3-fold increase, read-out: AK-based Prestwick Library Screening Results, K. pneumoniae (increase in extracellular AK activity)
[28] = planktonic A. baumannii, cutoff for positive-scoring molecules 3-fold increase, read-out: AK-based Prestwick Library Screening Results, A. baumannii (increase in extracellular AK activity)
[29] = planktonic E. coli, cutoff for positive-scoring molecules 3-fold increase, read-out: AK-based Prestwick Library Screening Results, E. coli (increase in extracellular AK activity)
[30] = planktonic E. cloacae, cutoff for positive-scoring molecules 3-fold increase, read-out: AK-based Prestwick Library Screening Results, E. cloacae (increase in extracellular AK activity)
[31] = cutoff for positive-scoring molecules 3-fold increase

CC[C@H](CC[C@@H](C)[C@H]1CC[C@H]2[C@@H]3CC=C4C[C@@H](O)CC[C@]4(C)[C@H]3CC[C@]12C)C(C)C [Beta-sistosterol]
AK-based Prestwick library screening result, P. aeruginosa (fold increase in extracellular AK activity) (P. aeruginosa; planktonic P. aeruginosa, […]): 0.8 | AK-based Prestwick library screening result, E. faecium (fold increase in extracellular AK activity) (E. faecium; planktonic E. faecium, […]): 0.9 | AK-based Prestwick library screening result, S. aureus (fold increase in extracellular AK activity) ([1]; planktonic S. aureus, […]): 0.7 | AK-based Prestwick library screening result, K. pneumoniae (fold increase in extracellular AK activity) (K. pneumoniae; planktonic K. pneumoniae, […]): 0.8 | AK-based Prestwick library screening result, A. baumannii (fold increase in extracellular AK activity) ([2]; planktonic A. baumannii, […]): 0.8 | AK-based Prestwick library screening result, E. coli (fold increase in extracellular AK activity) (E. coli; planktonic E. coli, […]): 0.8 | AK-based Prestwick library screening result, E. cloacae (fold increase in extracellular AK activity) (E. cloacae; planktonic E. cloacae, […]): 1.1

CCCc1ncc(C[n+]2ccccc2C)c(N)n1 [Amprolium hydrochloride]
fold induction at 50 µM (P. aeruginosa; [3]): 0.4 | fold induction at 50 µM (E. faecium; [4]): 0.9 | fold induction at 50 µM [1, 5]: 0.5 | fold induction at 50 µM (K. pneumoniae; [6]): 0.6 | fold induction at 50 µM [2, 7]: 0.5 | fold induction at 50 µM (E. coli; [8]): 0.5 | fold induction at 50 µM (E. cloacae; [9]): 0.4

Cc1cc(C)nc(NS(=O)(=O)c2ccc(N)cc2)n1 [Sulfamethazine sodium salt]
fold induction at 50 µM (P. aeruginosa; [10]): 1.1 | fold induction at 50 µM (E. faecium; [11]): 1 | fold induction at 50 µM [1, 12]: 1.4 | fold induction at 50 µM (K. pneumoniae; [13]): 1 | fold induction at 50 µM [2, 14]: 1.6 | fold induction at 50 µM (E. coli; [15]): 1 | fold induction at 50 µM (E. cloacae; [16]): 1.4

Cc1cc2cc3c(C)cc(=O)oc3c(C)c2o1 [Trioxsalen]
fold induction at 50 µM (P. aeruginosa; [10]): 1 | fold induction at 50 µM (E. faecium; [11]): 0.9 | fold induction at 50 µM [1, 12]: 0.9 | fold induction at 50 µM (K. pneumoniae; [13]): 1 | fold induction at 50 µM [2, 14]: 1.2 | fold induction at 50 µM (E. coli; [15]): 1.2 | fold induction at 50 µM (E. cloacae; [16]): 1.3

CC(COc1ccccc1)NC(C)C(O)c1ccc(O)cc1 (stereo not drawn) [Isoxsuprine hydrochloride]
fold induction at 50 µM (P. aeruginosa; [17]): 1.1 | fold induction at 50 µM (E. faecium; [18]): 1 | fold induction at 50 µM [1, 19]: 1.1 | fold induction at 50 µM (K. pneumoniae; [20]): 1 | fold induction at 50 µM [2, 21]: 1.5 | fold induction at 50 µM (E. coli; [22]): 1.1 | fold induction at 50 µM (E. cloacae; [23]): 1.5

Cc1cnc(NC(=O)C2=C(O)c3ccccc3S(=O)(=O)N2C)s1 [Meloxicam]
fold induction at 50 µM (P. aeruginosa; [24]): 0.9 | fold induction at 50 µM (E. faecium; [25]): 0.9 | fold induction at 50 µM [1, 26]: 2 | fold induction at 50 µM (K. pneumoniae; [27]): 0.8 | fold induction at 50 µM [2, 28]: 0.9 | fold induction at 50 µM (E. coli; [29]): 1 | fold induction at 50 µM (E. cloacae; [30]): 1.2

NCCCC[C@H](N[C@@H](CCc1ccccc1)C(=O)O)C(=O)N1CCC[C@H]1C(=O)O [Lisinopril]
fold induction at 50 µM (P. aeruginosa; [17]): 1.2 | fold induction at 50 µM (E. faecium; [18]): 1 | fold induction at 50 µM [1, 19]: 4.3 | fold induction at 50 µM (K. pneumoniae; [20]): 1 | fold induction at 50 µM [2, 21]: 1.3 | fold induction at 50 µM (E. coli; [22]): 1.2 | fold induction at 50 µM (E. cloacae; [23]): 1.5

Cc1c(OCC(F)(F)F)ccnc1C[S+]([O-])c1nc2ccccc2[nH]1 (stereo not drawn) [Lansoprazole]
fold induction at 50 µM (P. aeruginosa; planktonic P. aeruginosa, positive cutoff 3-fold increase, read-out: AK-based Prestwick library screening result, P. aeruginosa (fold increase in extracellular AK activity)): 0.7 | fold induction at 50 µM (E. faecium; planktonic E. faecium, positive cutoff 3-fold increase, read-out: AK-based Prestwick library screening result, E. faecium (fold increase in extracellular AK activity)): 0.6 | fold induction at 50 µM ([1]; planktonic S. aureus, positive cutoff 3-fold increase, read-out: AK-based Prestwick library screening result, S. aureus (fold increase in extracellular AK activity)): 0.2 | fold induction at 50 µM (K. pneumoniae; planktonic K. pneumoniae, positive cutoff 3-fold increase, read-out: AK-based Prestwick library screening result, K. pneumoniae (fold increase in extracellular AK activity)): 0.5 | fold induction at 50 µM ([2]; planktonic A. baumannii, positive cutoff 3-fold increase, read-out: AK-based Prestwick library screening result, A. baumannii (fold increase in extracellular AK activity)): 0.6 | fold induction at 50 µM (E. coli; planktonic E. coli, positive cutoff 3-fold increase, read-out: AK-based Prestwick library screening result, E. coli (fold increase in extracellular AK activity)): 0.6 | fold induction at 50 µM (E. cloacae; planktonic E. cloacae, positive cutoff 3-fold increase, read-out: AK-based Prestwick library screening result, E. cloacae (fold increase in extracellular AK activity)): 1

C#C[C@]1(O)CC[C@H]2[C@@H]3CCC4=CC(=O)CC[C@@H]4[C@H]3CC[C@@]21CC [Norgestrel-(−)-D]
AK-based Prestwick Library Screening Results, P. aeruginosa (fold increase in extracellular AK activity) (P. aeruginosa; [31]): 1.1 | AK-based Prestwick Library Screening Results, E. faecium (fold increase in extracellular AK activity) (E. faecium; [31]): 1.0 | AK-based Prestwick Library Screening Results, S. aureus (fold increase in extracellular AK activity) [1, 31]: 1.1 | AK-based Prestwick Library Screening Results, K. pneumoniae (fold increase in extracellular AK activity) (K. pneumoniae; [31]): 1.1 | AK-based Prestwick Library Screening Results, A. baumannii (fold increase in extracellular AK activity) [2, 31]: 1.1 | AK-based Prestwick Library Screening Results, E. coli (fold increase in extracellular AK activity) (E. coli; [31]): 1.0 | AK-based Prestwick Library Screening Results, E. cloacae (fold increase in extracellular AK activity) (E. cloacae; [31]): 1.7

CC(C(=O)O)c1ccc(C(=O)c2ccccc2)s1 (stereo not drawn) [Tiaprofenic acid]
fold induction at 50 µM (P. aeruginosa; [24]): 0.6 | fold induction at 50 µM (E. faecium; [25]): 0.8 | fold induction at 50 µM [1, 26]: 0.5 | fold induction at 50 µM (K. pneumoniae; [27]): 0.5 | fold induction at 50 µM [2, 28]: 0.7 | fold induction at 50 µM (E. coli; [29]): 0.6 | fold induction at 50 µM (E. cloacae; [30]): 0.8

c1ccc([C@H]2CN3CCSC3=N2)cc1 [Levamisole hydrochloride]
fold induction at 50 µM (P. aeruginosa; [3]): 1 | fold induction at 50 µM (E. faecium; [4]): 1 | fold induction at 50 µM [1, 5]: 0.9 | fold induction at 50 µM (K. pneumoniae; [6]): 0.7 | fold induction at 50 µM [2, 7]: 1.1 | fold induction at 50 µM (E. coli; [8]): 1 | fold induction at 50 µM (E. cloacae; [9]): 1

CC(NC(C)(C)C)C(=O)c1cccc(Cl)c1 (stereo not drawn) [Bupropion hydrochloride]
fold induction at 50 µM (P. aeruginosa; [3]): 0.5 | fold induction at 50 µM (E. faecium; [4]): 1 | fold induction at 50 µM [1, 5]: 0.5 | fold induction at 50 µM (K. pneumoniae; [6]): 0.5 | fold induction at 50 µM [2, 7]: 0.5 | fold induction at 50 µM (E. coli; [8]): 0.5 | fold induction at 50 µM (E. cloacae; [9]): 0.5
